Patent US11072619B2, “Pyrazole[1,5-a] pyrimidine derivatives as kinase JAK inhibitors” (CELON PHARMA S.A., priority 2017, dated 2021)

Assays:
Recombinant kinase JAK3 = Recombinant kinase JAK3 (Homo sapiens (Human), UniProt P52333); test: In vitro JAK kinase inhibition assay (ADP-Glo), JAK3; format: biochemical; details: 30 μM ATP, peptide IGF-1Rtide, averaged
Protocol: In Vitro JAK Kinase Inhibition Assay
The effects of the compounds of the invention were analysed in vitro using kinase JAK inhibition assay described below.
Tested compounds were dissolved in 100% DMSO, and obtained stock solutions were serially diluted in the reaction buffer (50 mM Tris pH 7.5, 10 mM MgCl2, 0.25 mM EGTA, 0.1 mM Na3VO4, 0.01% Triton X-100, 2.5 mM DTT). Recombinant kinases JAK1 (ProQinase), JAK2, or JAK3 (Carna Biosciences) were diluted in the dilution buffer (50 mM Tris-HCl pH 7.5, 150 mM NaCl, 10% glycerol, 0.05% Triton X-100, 1 mM DTT) to the final concentration 3 ng/μL (JAK1), 0.1 ng/μL (JAK2), or 0.2 ng/μL (JAK3). 5 μL of obtained solution of the compounds and 5 μL of the solution of respective kinases were added to the well of a 96-well plate. To initiate interaction between tested compounds and an enzyme, the plate was incubated for 10 minutes at 25° C. in a Plate-Thermo-Shaker with orbital stirring at 400 rpm. Wells of a negative control contained all reagents as mentioned above with the exception of tested compounds and kinase, and wells of a positive controls contained all reagents as mentioned above with the exception of tested compounds. Enzymatic reaction was initiated by the addition of 15 μL of the following solution: 5× concentrated reaction buffer (50 mM Tris pH 7.5, 10 mM MgCl2, 0.25 mM EGTA, 0.1 mM Na3VO4, 0.01% Triton X-100, 2.5 mM DTT), water, 30 μM ATP and for particular kinases: JAK1—60 μM peptide IRS-1 (Enzo), JAK2 or JAK3—10 μM peptide IGF-1Rtide (Lipopharm). Then the plate was incubated for 1 hour at 25° C. in a Plate-Thermo-Shaker, with orbital stirring at 400 rpm. Detection of ADP formed in the enzymatic reaction was then performed using ADP-Glo Kinase Assay kit (Promega). For this purpose, to the well of the 96-well plate 25 μL of ADP-Glo Reagent were added, and the plate was incubated for 40 minutes at 25° C. in a Plate-Thermo-Shaker with orbital stirring at 400 rpm. Then to the well of the 96-well plate 50 μL of Kinase Detection Reagent were added and the plate was incubated for 30 minutes at 25° C. in a Plate-Thermo-Shaker with orbital stirring at 400 rpm. After incubation, luminescence intensity was measured using Victor×Light luminometer (Perkin Elmer, Inc.).
On the basis of luminescence measurement in wells containing tested compounds at various concentrations and in control wells, IC50 values were determined. These values were determined with Graph Pad software v. 5.03, by fitting points of the curve using non-linear regression method. Each compound was tested in at least 6 repetitions (6 wells) on two 96-well plates, using at least 3 wells of each control.
Averaged results of kinases JAK inhibition activity for selected compounds of the present invention are presented below in Table 1.

TF-1 cells = TF-1 cells viability in vitro in the presence of IL-3 (JAK2 activation); format: cell-based; details: Homo sapiens, 5 ng/mL IL-3, 72 hours, ATPlite, read-out: JAK2 IL3 (EC50, inhibition of viability of TF-1 cells)
Protocol: Assay for TF-1 Cells Viability In Vitro
The effects of the activity of the compounds of the invention were tested in vitro using cells viability assay described below.
Tested compounds were dissolved in 100% DMSO, and obtained stock solutions were serially diluted in OptiMEM medium (Reduced Serum Medium-Thermo Fisher Scientific). […] To a well of the 96-well plate 10 μL of the prepared 10× stock solutions of the compounds. Cells on 96-well plates were incubated with the compounds for 72 hours at 37° C., 5% CO2. Subsequently, viability of the cells was measured using ATPlite kit (Perkin Elmer). For this purpose, 50 μL of lysis buffer (mammalian cell lysis solution) were added to a well of the 96-well plate and the plate was incubated for 10 minutes at 25° C. in a plate thermo-shaker with orbital stirring at 600 rpm. Then to a well of the 96-well plate 50 μL of substrate (substrate solution) were added and incubated for 15 minutes at in dark, in a plate thermo-shaker with orbital stirring at 600 rpm. After incubation time, luminescence intensity in a well was measured using Victor×Light luminometer (Perkin Elmer, Inc.).
On the basis of luminescence intensity measurements in well containing tested compounds at various concentrations and in control wells EC50 values were determined. These values were determined with Graph Pad software v. […] Each compound was tested in at least 6 repetitions (6 wells) on two 96-well plates, using at least 3 wells of each control.

[1] = system: STAT6 protein phosphorylation in TF-1 cells; test: STAT6 phosphorylation inhibition in vitro in TF-1 cells with IL-4; format: cell-based; details: Homo sapiens, IL-4 20 ng/mL, 1 hour, Western blot densitometry
Protocol: Assay of STAT6 Phosphorylation Inhibition In Vitro
The activity of the compounds of the invention was tested using in vitro assay described below.
Tested compounds were dissolved in 100% DMSO, and obtained stock solutions were serially in OptiMEM medium (Reduced Serum Medium-Thermo Fisher Scientific). TF-1 cells (DSMZ no.: ACC 334) in culture medium (80% RPMI 1640+20% FBS) in the presence of IL-4 at 20 ng/mL were sieved on 12-well plates at 900 μl/well, 700 thousands of cells/well. To a well of the 12-well plate 100 μL of obtained 10× solution of the compounds were added. Cells on 12-well plates were incubated with tested compounds for 1 hour at 37° C., 5% CO2. Subsequently the cells were washed with PBS, lysed in RIPA buffer added with EDTA, proteases and phosphatases inhibitors, and incubated for 5 min on ice. Protein concentration was determined using Pierce BCA Protein Assay Kit (Thermo Fisher Scientific). Protein lysates were separated by electrophoresis (SDS-PAGE) on 8% polyacrylamide gels, then wet-transferred on nitrocellulose membrane and tested proteins were detected in accordance with the instructions of antibody manufacturer.
On the basis of the measurement of chemoluminescence intensity densitometric analysis was performed, results obtained for the cells treated with tested compounds at various concentrations were compared with those obtained for control cells, and IC50 values were determined.
These values were determined with Graph Pad software v. 5.03, by fitting points of the curve using non-linear regression method. Each compound was tested in at least 3 repetitions.

Sequence of Recombinant kinase JAK3 (P52333 whole entry): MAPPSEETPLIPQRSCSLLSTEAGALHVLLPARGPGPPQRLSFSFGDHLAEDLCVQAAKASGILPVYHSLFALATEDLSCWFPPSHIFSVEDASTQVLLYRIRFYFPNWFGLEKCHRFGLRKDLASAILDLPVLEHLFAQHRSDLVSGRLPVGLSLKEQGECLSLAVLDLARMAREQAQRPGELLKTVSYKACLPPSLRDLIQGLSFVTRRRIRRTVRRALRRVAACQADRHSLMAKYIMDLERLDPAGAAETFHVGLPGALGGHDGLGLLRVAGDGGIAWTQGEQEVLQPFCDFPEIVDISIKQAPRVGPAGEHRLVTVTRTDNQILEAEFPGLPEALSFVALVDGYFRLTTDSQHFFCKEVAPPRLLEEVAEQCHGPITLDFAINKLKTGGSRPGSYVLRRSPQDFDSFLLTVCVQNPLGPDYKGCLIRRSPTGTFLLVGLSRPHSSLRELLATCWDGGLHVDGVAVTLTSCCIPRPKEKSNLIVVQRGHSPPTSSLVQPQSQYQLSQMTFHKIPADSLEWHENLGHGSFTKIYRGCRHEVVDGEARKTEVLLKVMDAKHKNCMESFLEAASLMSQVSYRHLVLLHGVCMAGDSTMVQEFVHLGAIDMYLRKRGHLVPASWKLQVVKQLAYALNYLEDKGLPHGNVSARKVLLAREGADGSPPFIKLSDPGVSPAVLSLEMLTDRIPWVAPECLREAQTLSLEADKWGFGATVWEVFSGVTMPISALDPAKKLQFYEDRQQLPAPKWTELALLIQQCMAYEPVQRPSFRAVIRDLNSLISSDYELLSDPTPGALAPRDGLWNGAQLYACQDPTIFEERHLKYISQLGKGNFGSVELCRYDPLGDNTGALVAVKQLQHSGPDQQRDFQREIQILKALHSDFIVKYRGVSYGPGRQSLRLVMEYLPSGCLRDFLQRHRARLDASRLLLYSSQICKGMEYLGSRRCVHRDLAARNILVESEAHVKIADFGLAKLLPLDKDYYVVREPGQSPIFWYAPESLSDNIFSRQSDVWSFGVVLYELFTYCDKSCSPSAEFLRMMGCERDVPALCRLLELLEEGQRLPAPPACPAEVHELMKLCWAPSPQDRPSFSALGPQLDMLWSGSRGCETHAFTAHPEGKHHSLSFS

IC50 (Recombinant kinase JAK3) [nM]	IC50 [1] [nM]	SMILES	IC50 (TF-1 cells) [nM]
2.67	442	COc1ccc(-c2cc3ncc(C(N)=O)c(N[C@@H]4CCN(c5ccc(C#N)nn5)CC4(C)C)n3n2)cn1 [Example 4, (R)-7-((1-(6-Cyanopyridazin-3-yl)-3,3-dimethylpiperidin-4-yl)amino)-2-(6-methoxy-pyridin-3-yl)pyrazolo[1,5-a]pyrimidine-6-carboxamide]	707
0.19	116	CC1(C)CN(c2ccc(C#N)nn2)CC[C@H]1Nc1c(C(N)=O)cnc2cc(-c3ccc(N4CCOCC4)nc3)nn12 [Example 7, (R)-7-((1-(6-Cyanopyridazin-3-yl)-3,3-dimethylpiperidin-4-yl)amino)-2-(6-morpholinopyridin-3-yl)pyrazolo[1,5-a]pyrimidine-6-carboxamide]	283
0.03	114	COc1cccc(-c2cc3ncc(C(N)=O)c(N[C@@H]4CCN(c5ccc(C#N)nn5)CC4(C)C)n3n2)n1 [Example 11, (R)-7-((1-(6-Cyanopyridazin-3-yl)-3,3-dimethylpiperidin-4-yl)amino)-2-(6-methoxy-pyridin-2-yl)pyrazolo[1,5-a]pyrimidine-6-carboxamide]	451
0.29	150	Cc1cc(-c2cc3ncc(C(N)=O)c(N[C@@H]4CCN(c5ccc(C#N)nn5)CC4(C)C)n3n2)ccn1 [Example 12, (R)-7-((1-(6-Cyanopyridazin-3-yl)-3,3-dimethylpiperidin-4-yl)amino)-2-(2-methyl-pyridin-4-yl)pyrazolo[1,5-a]pyrimidine-6-carboxamide]	361
